Reference: ChEMBL document CHEMBL1136973, “Structure-activity relationships of heteroaromatic esters as human rhinovirus 3C protease inhibitors” (Bioorg Med Chem Lett, 2009)
Activity calls are given as the source filed them. The rule behind the calls is not given here.

These molecules were tested against Replicase polyprotein 1ab (Severe acute respiratory syndrome-related coronavirus, UniProt P0C6X7) (assay: Inhibition of SARS coronavirus isolate Tor2 3C-like protease by FRET assay).

Row | Structure (SMILES) | IC50 [µM]
1 | O=C(Oc1cccnc1)c1cccs1 | 0.5

These molecules were tested against Genome polyprotein (rhinovirus A16, UniProt Q82122) (assay: Inhibition of HRV-16 protease 3C expressed in Escherichia coli BL21(DE3) by FRET assay).
Sequence of Genome polyprotein (Q82122 1511-1693 limits assumed): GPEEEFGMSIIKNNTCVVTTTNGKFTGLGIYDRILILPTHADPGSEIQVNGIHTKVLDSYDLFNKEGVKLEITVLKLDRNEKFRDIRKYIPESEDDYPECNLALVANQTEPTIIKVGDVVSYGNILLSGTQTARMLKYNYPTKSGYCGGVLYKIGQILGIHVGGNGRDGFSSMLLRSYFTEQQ

Row | Structure (SMILES) | IC50 [µM]
2 | O=C(Oc1cncc(Cl)c1)c1ccc2ccccc2c1 | 0.71
3 | O=C(Oc1cncc(Cl)c1)c1cnc[nH]1 | 0.29
4 | O=C(Oc1cc(=O)[nH]c2ccccc12)c1ccco1 | 0.2
5 | CCOc1nc(/C=C/c2ccccc2)oc1C(=O)Oc1cncc(Cl)c1 | 0.69
6 | O=C(Oc1cncc(Br)c1)c1ccco1 | 0.08

Each molecule was assayed against Genome polyprotein (rhinovirus A16) (UniProt Q82122) (assay: Inhibition of HRV-16 protease 3C expressed in Escherichia coli BL21(DE3) at 10 uM by FRET assay).
Sequence of Genome polyprotein (rhinovirus A16) (Q82122 whole entry): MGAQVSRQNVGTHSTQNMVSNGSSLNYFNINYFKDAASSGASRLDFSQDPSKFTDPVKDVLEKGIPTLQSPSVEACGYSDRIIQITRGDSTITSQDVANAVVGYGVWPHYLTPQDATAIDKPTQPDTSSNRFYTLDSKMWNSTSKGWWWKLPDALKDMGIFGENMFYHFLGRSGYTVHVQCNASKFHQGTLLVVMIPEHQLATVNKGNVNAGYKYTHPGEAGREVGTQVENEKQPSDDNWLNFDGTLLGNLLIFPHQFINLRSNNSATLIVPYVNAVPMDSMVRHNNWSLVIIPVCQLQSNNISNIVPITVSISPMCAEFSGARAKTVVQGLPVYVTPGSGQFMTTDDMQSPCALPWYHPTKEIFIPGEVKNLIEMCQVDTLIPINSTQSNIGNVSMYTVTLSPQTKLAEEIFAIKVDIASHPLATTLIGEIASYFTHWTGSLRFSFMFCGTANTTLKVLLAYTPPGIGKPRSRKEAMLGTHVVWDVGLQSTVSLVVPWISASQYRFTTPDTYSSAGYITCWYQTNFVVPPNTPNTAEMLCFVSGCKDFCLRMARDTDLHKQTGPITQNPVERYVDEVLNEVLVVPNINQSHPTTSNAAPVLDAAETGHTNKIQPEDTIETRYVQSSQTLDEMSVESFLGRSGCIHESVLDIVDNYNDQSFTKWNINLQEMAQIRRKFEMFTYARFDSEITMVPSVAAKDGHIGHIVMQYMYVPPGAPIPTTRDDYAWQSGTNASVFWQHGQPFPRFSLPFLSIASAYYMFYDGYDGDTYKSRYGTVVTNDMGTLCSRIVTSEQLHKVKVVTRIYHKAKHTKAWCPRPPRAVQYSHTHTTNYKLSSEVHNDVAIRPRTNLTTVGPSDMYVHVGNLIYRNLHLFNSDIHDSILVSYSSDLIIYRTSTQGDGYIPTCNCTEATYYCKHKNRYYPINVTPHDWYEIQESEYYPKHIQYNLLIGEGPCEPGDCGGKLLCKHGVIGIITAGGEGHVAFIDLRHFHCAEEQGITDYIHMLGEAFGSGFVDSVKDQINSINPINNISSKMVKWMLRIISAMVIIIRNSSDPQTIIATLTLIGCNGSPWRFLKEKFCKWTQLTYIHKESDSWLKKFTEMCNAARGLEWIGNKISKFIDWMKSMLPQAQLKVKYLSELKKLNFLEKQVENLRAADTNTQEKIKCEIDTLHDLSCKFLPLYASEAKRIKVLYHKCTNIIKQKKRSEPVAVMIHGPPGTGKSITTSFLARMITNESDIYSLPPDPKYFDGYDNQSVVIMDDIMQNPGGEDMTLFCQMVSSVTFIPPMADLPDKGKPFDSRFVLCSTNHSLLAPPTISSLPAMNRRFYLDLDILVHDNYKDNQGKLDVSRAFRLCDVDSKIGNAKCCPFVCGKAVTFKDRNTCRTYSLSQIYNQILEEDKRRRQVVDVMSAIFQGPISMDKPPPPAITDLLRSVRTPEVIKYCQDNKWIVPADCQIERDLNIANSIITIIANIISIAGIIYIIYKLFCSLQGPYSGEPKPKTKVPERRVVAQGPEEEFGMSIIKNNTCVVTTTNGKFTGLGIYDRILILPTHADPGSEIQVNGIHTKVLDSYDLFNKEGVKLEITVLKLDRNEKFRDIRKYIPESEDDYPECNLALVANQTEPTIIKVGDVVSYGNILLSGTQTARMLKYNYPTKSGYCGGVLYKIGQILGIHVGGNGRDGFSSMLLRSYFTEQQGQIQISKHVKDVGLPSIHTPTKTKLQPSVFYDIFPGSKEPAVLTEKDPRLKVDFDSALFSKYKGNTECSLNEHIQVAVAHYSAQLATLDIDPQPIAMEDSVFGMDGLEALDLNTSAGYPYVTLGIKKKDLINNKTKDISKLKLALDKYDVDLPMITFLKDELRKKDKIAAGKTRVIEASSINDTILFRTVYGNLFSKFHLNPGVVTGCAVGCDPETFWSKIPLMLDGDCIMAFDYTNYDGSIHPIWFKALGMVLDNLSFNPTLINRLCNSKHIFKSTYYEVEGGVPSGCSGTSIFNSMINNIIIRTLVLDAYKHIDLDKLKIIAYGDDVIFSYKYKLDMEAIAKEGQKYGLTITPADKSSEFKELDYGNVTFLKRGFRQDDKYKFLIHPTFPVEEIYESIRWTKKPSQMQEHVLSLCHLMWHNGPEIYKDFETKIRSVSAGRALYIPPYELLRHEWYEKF

Row | Structure (SMILES) | inhibition [%]
7 | NC(=O)c1ccc(OC(=O)c2ccco2)cc1 | 21

Each molecule was assayed against Genome polyprotein (rhinovirus A16) (UniProt Q82122) (assay: Inhibition of HRV-16 protease 3C expressed in Escherichia coli BL21(DE3) at 1 uM by FRET assay).

Row | Structure (SMILES) | inhibition
8 | NC(=O)c1cccc(OC(=O)c2ccco2)c1 | 5%
9 | CCOc1nc(C(c2ccccc2)c2ccccc2)oc1C(=O)Oc1cncc(Cl)c1 | 5%
10 | O=C(Oc1cncc(Cl)c1)c1cccc2ccccc12 | 75%
11 | O=C(Oc1cncc(Cl)c1)c1cccs1 | 64%
12 | O=C(/C=C/c1ccccc1)Oc1cncc(Br)c1 | 63%
13 | NC(=O)c1ccc(OC(=O)c2ccco2)cc1 | 5%
14 | CCOc1nc(Cc2ccccc2)oc1C(=O)Oc1cncc(Cl)c1 | 5%
15 | O=C(Oc1cncc(Cl)c1)c1ccc(-c2ccc(Cl)cc2)o1 | 89%
16 | O=C(Oc1cncc(Cl)c1)c1ccco1 | 87%
17 | CCOc1nc(-c2ccccc2)oc1C(=O)Oc1cncc(Cl)c1 | inactive
18 | O=C(Oc1cccnc1)c1ccco1 | 8%
19 | O=C(Oc1cncc(Cl)c1)c1ccc2ccccc2c1 | 80%
20 | O=C(Oc1cncc(Cl)c1)c1cn(-c2ccc(C(F)(F)F)cc2)cn1 | 40%
21 | Cc1ccc(-c2ccc(C(=O)Oc3cncc(Cl)c3)o2)cc1 | 79%
22 | NC(=O)c1ncccc1OC(=O)c1ccco1 | 14%
23 | Cc1cc(C(=O)Oc2cncc(Cl)c2)no1 | inactive

Row | Structure (SMILES) | inhibition
24 | O=C(Oc1cccnc1C(=O)O)c1ccco1 | inactive
25 | O=C(Oc1ccncc1)c1ccco1 | inactive
26 | O=C(Oc1cc(=O)[nH]c2ccccc12)c1ccco1 | 98%
27 | Nc1ncccc1OC(=O)c1ccco1 | 24%
28 | CCOc1nc(/C=C/c2ccccc2)oc1C(=O)Oc1cncc(Cl)c1 | 87%
29 | O=C(Oc1cncc(Cl)c1)c1c[nH]cn1 | 82%
30 | O=C(Oc1cncc(Br)c1)c1ccco1 | 90%
31 | CCOc1nc(-c2ccc3ccccc3c2)oc1C(=O)Oc1cncc(Cl)c1 | 34%
32 | O=C(Oc1cc(Cl)cnc1O)c1ccco1 | inactive
33 | O=C(Oc1ccccn1)c1ccco1 | inactive
34 | O=C(Oc1cncc(Cl)c1)c1ccc(-c2ccc([N+](=O)[O-])cc2)o1 | 60%
35 | O=C(CCc1ccccc1)Oc1cncc(Br)c1 | 34%
36 | O=C(Oc1cncc(Cl)c1)c1ccc(-c2ccccc2)o1 | 80%
37 | O=C(Oc1cncc(Cl)c1)c1ccccc1 | 59%
38 | O=C(Oc1cccnc1O)c1ccco1 | inactive
